# Laboratory results taken from US20040110776A1, “Use of propentofylline to control intraocular pressure” (priority 2003, published 2004).
# B1: interleukin-1α: cytokine known to increase the expression of matrix metalloproteinases in the TM (protein, UniProt P01583 113-271, looked up)
# Interleukin-1 alpha: SAPFSFLSNVKYNFMRIIKYEFILNDALNQSIIRANDQYLTAAALHNLDEAVKFDMGAYKSSKDDAKITVILRISKTQLYVTAQDEDQPVLLKEMPEIPKTITGSETNLLFFWETHGTKNYFTSVAHPNLFIATKQDYWVCLAGGPPSITDFQILENQA
# Tests used:
# [1] = system: MMP-3 expression in cultured human trabecular meshwork (HTM-35D) cells; assay: MMP-3 expression in cultured human trabecular meshwork (HTM-35D) cells, proMMP-3 ELISA of medium; format: cell-based; conditions: 72 hours; for change in MMP-3 expression in the TM cells: indicated concentration (FIG. 1, lower panel)
# Source text: Propentofylline was unexpectedly discovered to stimulate the expression of metalloproteinase-3 (MMP-3; stromelysin) in cultured human trabecular meshwork cells.
# Effect of Various Compounds on MMP-3 Expression in Cultured Human Trabecular Meshwork (HTM-35D) Cells
# Human TM cells were isolated, characterized and cultured as described (Steely et al, The effects of dexamethasone on fibronectin expression in cultured human trabecular meshwork cells, Investigative Ophthalmology and Visual Science, 1992;33:2242-2250) They were maintained at 5% CO2 and 37° C. in a medium consisting of Dulbecco's modified Eagle medium with Glutamax I supplemented with 10% fetal bovine serum and 50 μg/mL gentamicin. Confluent cell cultures were treated with the indicated compounds at the indicated final concentration for 72 hours and the medium assayed for proMMP-3 by a commercially available ELISA assay kit. (See FIG. 1.) Abbreviations: PPF-OH is hydroxypropentofylline.
# [2] = system: IOP in the rabbit; conditions: cited from earlier work
# [3] = system: Rabbit IOP; assay: Rabbit IOP after topical ocular dosing (pneumatonometer); format: in vivo; conditions: for effect on IOP of rabbits (in words): 500 μg topical (2×25 μL, 1% solution); for % Change in IOP Mean / IOP (mmHg) Mean: 500 μg topical, n = 10
# Description: When propentofylline was tested in the rabbit for its potential effect on IOP. […] In this study, the rabbits were placed in restrainers, and IOP was determined with an Alcon Pneumatonometer after light corneal anesthesia with 0.1% proparacaine (Alcaine® diluted with physiogical saline). Following each IOP measurement, residual anesthetic was washed away with saline. After two baseline measurements, animals were dosed topically on the cornea with vehicle or propentofylline (2×25 μL, 1% solution). IOP measurements were taken at indicated intervals.
# [4] = system: IOP in ocular normotensive rabbits; conditions: topical instillation of 2%; cited from earlier work
# [5] = system: lasered monkey eyes; assay: IOP in lasered (ocular hypertensive) monkey eyes; format: in vivo; conditions: for IOP-lowering effect, single dose: 500 μg in aqueous solution, topical, lasered eye of unanesthetized monkeys; for IOP-lowering effect after repeated doses: 500 μg twice daily, 7 consecutive days, lasered monkey eyes
# Description: The IOP-lowering effect of propentofylline in primates was discovered when tested in ocular hypertensive monkeys. In this animal model, the IOP of cynomolgus monkeys was artificially elevated by laser-induced photocoagulation of the TM.
# Top Panel: IOP-lowering effect of Propentofylline (PPF) (500 μg) in lasered monkey eyes.
# These monkeys received 500 μg of propentofylline twice daily for the indicated days and the IOP was measured right after the morning dosing.
# Studies were performed as described previously (Toris, et al., Aqueous humor dynamics in monkeys with laser-induced glaucoma, Journal of Ocular Pharmacology and Therapeutics, 2000;16:19-27). (See FIG. 3.)
# [6] = system: anterior segments of non-glaucomatous donor eyes; assay: Outflow in human ocular perfusion organ culture; conditions: 100 μM continuous perfusion, days 2 and 3 after initiation of perfusion
# Description: In this ex vivo study, the anterior segments of non-glaucomatous donor eyes were perfused continuously with 100 μM of propentofylline.
# Human ocular perfusion organ culture was performed as described (Tschumper, et al. Glycosaminoglycans of human trabecular meshwork in perfusion organ culture. Current Eye Research, 1990;9:363-369; Clark et al, Dexamethasone-induced ocular hypertension in perfusion-cultured human eyes. Investigative Ophthalmology and Visual Science 1995;36:478-489). Briefly, human cadaver eyes, 16 to 20 hours post mortem, were dissected at the equator and the lens, vitreous and iris were removed. The anterior segment of the eye, including cornea and sclera ring containing TM and ciliary body, was placed into a custom-made plexiglass culture dish and sealed in place with a plexiglass O-ring. Culture media (Dulbecco's modified Eagle medium) was placed in a reservoir and perfused through a central cannula in the bottom of the dish. The reservoir was raised to generate approximately 11 mmHg of hydrostatic pressure relative to the center of the perfused eye. The weight of the reservoir was recorded daily. […]
# After a 2-4 days stabilization period, the eyes were perfused with either 100 μM propentofylline (PPF) or vehicle alone and their outflow rates monitored for is another 4 days. * represents p<0.05 by Student's t-test. […]
# [7] = system: human anterior segment; conditions: perfusion of the anterior segment; cited from earlier work
molecule,measurement,setting,value
OCCN(CCO)c1nc(N2CCCCC2)c2nc(N(CCO)CCO)nc(N3CCCCC3)c2n1 [dipyridamole],change in MMP-3 expression in the TM cells,[1],did not produce a statistically significant change
CC(C)OC(=O)CCC/C=C\C[C@@H]1[C@@H](CC[C@@H](O)CCc2ccccc2)[C@H](O)C[C@@H]1O [latanoprost],effect on IOP in the rabbit,[2],no measurable effect on IOP
CC(=O)CCCCn1c(=O)c2c(ncn2C)n(C)c1=O [Pentoxifylline],change in MMP-3 expression in the TM cells,[1],did not produce a statistically significant change
same,effect on IOP of rabbits (in words),[3],did not significantly lower IOP
same,% Change in IOP Mean,[3]; 0 hour after treatment,0.0%
same,IOP (mmHg) Mean,[3]; 0 hour after treatment,23.8 mmHg
same,% Change in IOP Mean,[3]; 1 hour after treatment,−8.9%
same,IOP (mmHg) Mean,[3]; 1 hour after treatment,21.6 mmHg
same,% Change in IOP Mean,[3]; 3 hours after treatment,−1.8%
same,IOP (mmHg) Mean,[3]; 3 hours after treatment,23.1 mmHg
same,% Change in IOP Mean,[3]; 5 hours after treatment,17.5%
same,IOP (mmHg) Mean,[3]; 5 hours after treatment,27.8 mmHg
same,% Change in IOP Mean,[3]; 7 hours after treatment,15.9%
same,IOP (mmHg) Mean,[3]; 7 hours after treatment,27.3 mmHg
same,effect on IOP,[4],slight decrease in IOP
CC[C@@H]1C(=O)OC[C@@H]1Cc1cncn1C [pilocarpine],effect on IOP in the rabbit,[2],no measurable effect on IOP
CCCn1cnc2c1c(=O)n(CCCCC(C)O)c(=O)n2C (stereo not drawn) [hydroxy-propentofylline],change in MMP-3 expression in the TM cells,[1],did not produce a statistically significant change
"CCCn1cnc2c1c(=O)n(CCCCC(C)=O)c(=O)n2C [Propentofylline, 3-methyl-1-(5′-oxohexyl)-7-propyl-xanthine]","IOP-lowering effect, single dose",[5],clearly reduced IOP at 1 hour
same,"IOP-lowering effect, single dose",[5]; listed as propentofylline,dramatic decrease in IOP
same,IOP-lowering effect after repeated doses,[5],ocular hypotensive even after repeated doses
same,IOP-lowering effect after repeated doses,[5]; listed as propentofylline,persisted even after 7 consecutive days
same,tolerability,"[5]; monkeys, 500 μg topical",well tolerated
same,expression of MMP-3,"[1]; 100 μM, cultured human trabecular meshwork cells",significantly increased the expression of MMP-3
same,effect on IOP of rabbits (in words),[3],did not affect the IOP of rabbits
same,tolerability,[3]; 500 μg topical onto the eye,well tolerated
same,% Change in IOP Mean,[3]; 0 hour after treatment,0.0%
same,IOP (mmHg) Mean,[3]; 0 hour after treatment,23.5 mmHg
same,% Change in IOP Mean,[3]; 1 hour after treatment,−10.0%
same,IOP (mmHg) Mean,[3]; 1 hour after treatment,21.0 mmHg
same,% Change in IOP Mean,[3]; 3 hours after treatment,1.3%
same,IOP (mmHg) Mean,[3]; 3 hours after treatment,23.6 mmHg
same,% Change in IOP Mean,[3]; 5 hours after treatment,1.1%
same,IOP (mmHg) Mean,[3]; 5 hours after treatment,23.5 mmHg
same,% Change in IOP Mean,[3]; 7 hours after treatment,4.7%
same,IOP (mmHg) Mean,[3]; 7 hours after treatment,24.0 mmHg
same,outflow rates compared to vehicle-treated eyes,[6],significantly increased
CN(C)c1ccc(O)c2c1C[C@H]1C[C@H]3[C@H](N(C)C)C(O)=C(C(N)=O)C(=O)[C@@]3(O)C(O)=C1C2=O [minocylcine],effect on outflow facility / aqueous outflow (in words),[7],suppressed aqueous outflow
N[C@@H](Cc1c[nH]c2ccccc12)C(=O)NO [L-tryptophan hydroxamate],effect on outflow facility / aqueous outflow (in words),[7],suppressed aqueous outflow
B1,effect on outflow facility / aqueous outflow (in words),[7],augmented the outflow facility
